Earlier results in patent publication US10220158B2 (kaleo, Inc., priority 2014, dated 2019).

Details: jet injector vs conventional syringe

## Cc1ncc2n1-c1ccc(Cl)cc1C(c1ccccc1F)=NC2 [midazolam]
  peak midazolam plasma concentrations produced faster: over 30%
